# The source made the active and inactive calls. The rule behind the calls is not given here.
# Test system: Cricetinae gen. sp.
# Test: Ability to reduce liver cholesterol ester (L/CE) levels in the cholesterol fed hamster model at a dose of 50 mg/k
# Type: functional, Cricetulus griseus
# Details: not given
row,SMILES,L/CE
1,COc1ccc([C@@H]2[C@@H](CCc3ccccc3)NC(=O)N2c2ccccc2)cc1,34%
2,COc1ccc([C@@H]2[C@@H](CCCc3ccccc3)OC(=O)N2c2ccccc2)cc1,47%
3,COc1ccc([C@@H]2[C@@H](CCc3ccccc3)CC(=O)N2c2ccc(OC)cc2)cc1,24%
4,COc1ccc([C@@H]2[C@H](c3ccc4ccccc4c3)CC(=O)N2c2ccc(OC)cc2)cc1,21%
5,COc1ccc([C@@H]2[C@@H](CCc3ccccc3)OC(=O)N2c2ccccc2)cc1,34%
6,COc1ccc([C@@H]2[C@@H](CCCc3ccccc3)C(=O)N2c2ccc(OC)cc2)cc1 [SCH-48461],78%
7,COc1ccc([C@@H]2[C@@H](c3ccc4ccccc4c3)CC(=O)N2c2ccc(OC)cc2)cc1,28%
8,COc1ccc([C@@H]2[C@H](CCCc3ccccc3)C(=O)N2c2ccc(OC)cc2)cc1 (racemic),95%
9,COc1ccc([C@@H]2[C@@H](CCCc3ccccc3)CC(=O)N2c2ccc(OC)cc2)cc1,12%
10,COc1ccc([C@@H]2[C@H](CCc3ccccc3)CC(=O)N2c2ccc(OC)cc2)cc1,16%
11,COc1ccc([C@@H]2[C@@H](CCCc3ccccc3)C(=S)N2c2ccc(OC)cc2)cc1,23%
12,COc1ccc([C@@H]2[C@@H](CCCCc3ccccc3)CC(=O)N2c2ccc(OC)cc2)cc1,52%
13,COc1ccc([C@@H]2[C@H](CCc3ccccc3)OC(=O)N2c2ccccc2)cc1,21%
14,COc1ccc([C@@H]2[C@H](CCCc3ccccc3)CC(=O)N2c2ccc(OC)cc2)cc1,43%
15,COc1ccc([C@@H]2[C@@H](CCCc3ccccc3)S(=O)(=O)N2c2ccccc2)cc1,51%
16,COc1ccc([C@@H]2[C@H](CCCc3ccccc3)S(=O)(=O)N2c2ccccc2)cc1,43%
17,COc1ccc([C@@H]2[C@H](CCCCc3ccccc3)CC(=O)N2c2ccc(OC)cc2)cc1,30%

# Test system: Cricetinae gen. sp.
# Test: Tested for ability to reduce liver cholesterol ester (L/CE) levels in the cholesterol fed hamster model at a dose of 50 mg/kg; NE: No effect
# Type: functional, organism-based
# Design: dose 50 mg/kg
# Details: Cricetulus griseus
row,SMILES,L/CE
1,COc1ccc([C@H]2C[C@@H](CCCCc3ccccc3)C(=O)N2c2ccccc2)cc1,inactive
2,COc1ccc([C@@H]2C[C@@H](CCCCc3ccccc3)C(=O)N2c2ccccc2)cc1,inactive
3,COc1ccc([C@H]2CN(c3ccc(OC)cc3)C(=O)[C@@H]2CCCc2ccccc2)cc1,inactive
4,COc1ccc([C@@H]2C[C@@H](CCCc3ccccc3)C(=O)N2c2ccc(OC)cc2)cc1,inactive

# Test system: Cricetinae gen. sp.
# Test: Tested for ability to reduce liver cholesterol ester (L/CE) levels in the cholesterol fed hamster model at a dose of 10 mg/kg
# Type: functional, Cricetulus griseus
# Details: not given
row,SMILES,L/CE
1,COc1ccc([C@@H]2[C@@H](CCCc3ccccc3)C(=O)N2c2ccc(OC)cc2)cc1 [SCH-48461],93%
2,COc1ccc([C@@H]2[C@H](CCCc3ccccc3)C(=O)N2c2ccc(OC)cc2)cc1,69%
